Source: US12077503B2, “Substituted cyclic amides and their use as herbicides” (FMC CORPORATION, priority 2015, dated 2024)

Key:
Format in all cases: in vivo
[1] = tested on: barnyardgrass (Echinochloa crus-galli); test: Test G Pre-Emergence Protocol; settings: Echinochloa crus-galli, pre-emergence, 312 h, evaluated after 13 days
How it was run: (§1)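 Visual injury (0–100) at day 13 after a single pre-emergence spray. Rates: 15.625, 62.5, 250 g/ha in acetone–water 50:50 with 0.5% Tween 20. Growth conditions: 24/16° C, 14 h light, 65% humidity.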

corn (Zea mays) [2] = test: Test G Pre-Emergence Protocol; settings: Zea mays, pre-emergence, 312 h, evaluated after 13 days
How it was run: as §1

[3] = tested on: giant foxtail (Setaria faberi); test: Test G Pre-Emergence Protocol; settings: Setaria faberi, pre-emergence, 312 h, evaluated after 13 days
How it was run: as §1

[4] = tested on: ivy-leaved morning glory (Ipomoea hederacea); test: Test G Pre-Emergence Protocol; settings: Ipomoea, pre-emergence, 312 h, evaluated after 13 days
How it was run: as §1

[5] = tested on: redroot pigweed (Amaranthus retroflexus); test: Test G Pre-Emergence Protocol; settings: Amaranthus retroflexus, pre-emergence, 312 h, evaluated after 13 days
How it was run: as §1

[6] = tested on: velvetleaf (Abutilon theophrasti); test: Test G Pre-Emergence Protocol; settings: Abutilon theophrasti, pre-emergence, 312 h, evaluated after 13 days
How it was run: as §1

[7] = tested on: barnyardgrass (Echinochloa crus-galli); test: Test G Post-Emergence Protocol; settings: Echinochloa crus-galli, post-emergence, 312 h
How it was run: (§2)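 Eight days post-sowing, plants received a spray of test compound (acetone/water 50:50, 0.5% Tween 20) at 15.625, 62.5 or 250 g/ha. Glasshouse regime thereafter: 24/16 °C, 14 h light, 65% humidity. Assessment after 13 days on a 0–100 damage scale.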

corn (Zea mays) [8] = test: Test G Post-Emergence Protocol; settings: Zea mays, post-emergence, 312 h
How it was run: as §2

[9] = tested on: giant foxtail (Setaria faberi); test: Test G Post-Emergence Protocol; settings: Setaria faberi, post-emergence, 312 h
How it was run: as §2

[10] = tested on: ivy-leaved morning glory (Ipomoea hederacea); test: Test G Post-Emergence Protocol; settings: Ipomoea, post-emergence, 312 h
How it was run: as §2

[11] = tested on: redroot pigweed (Amaranthus retroflexus); test: Test G Post-Emergence Protocol; settings: Amaranthus retroflexus, post-emergence, 312 h
How it was run: as §2

[12] = tested on: velvetleaf (Abutilon theophrasti); test: Test G Post-Emergence Protocol; settings: Abutilon theophrasti, post-emergence, 312 h
How it was run: as §2

SMILES: Cc1cccc(NC(=O)[C@H]2C(=O)N(C)C[C@@H]2c2ccc(C(F)(F)F)cc2)n1 (racemic) [Compound 1429]
- pest or weed control at 15.625 g/ha ([1]; 15.625 g ai/ha, read-out: Barnyard grass damage rating (100=total damage to plant; 0=no damage to plant)): 0%
- pest or weed control at 62.5 g/ha ([1]; 62.5 g ai/ha, 100=total damage to plant, 0=no damage to plant, read-out: plant damage rating, Barnyardgrass): 40%
- pest or weed control at 250 g/ha ([1]; 250 g ai/ha, read-out: Barnyardgrass damage rating (100=total damage to plant; 0=no damage to plant)): 70%
- plant injury at 15.625 g/ha (corn (Zea mays) [2]; 15.625 g ai/ha, read-out: Corn damage rating (100=total damage to plant; 0=no damage to plant)): 0%
- plant injury at 62.5 g/ha (corn (Zea mays) [2]; 62.5 g ai/ha, 100=total damage to plant, 0=no damage to plant, read-out: plant damage rating, Corn): 0%
- plant injury at 250 g/ha (corn (Zea mays) [2]; 250 g ai/ha, read-out: Corn damage rating (100=total damage to plant; 0=no damage to plant)): 0%
- pest or weed control at 15.625 g/ha ([3]; 15.625 g ai/ha, read-out: Foxtail, Giant damage rating (100=total damage to plant; 0=no damage to plant)): 0%
- pest or weed control at 62.5 g/ha ([3]; 62.5 g ai/ha, 100=total damage to plant, 0=no damage to plant, read-out: plant damage rating, Foxtail, Giant): 70%
- pest or weed control at 250 g/ha ([3]; 250 g ai/ha, read-out: Foxtail, Giant damage rating (100=total damage to plant; 0=no damage to plant)): 80%
- pest or weed control at 15.625 g/ha ([4]; 15.625 g ai/ha, read-out: Morning-glory, Ivy-leaved damage rating (100=total damage to plant; 0=no damage to plant)): 0%
- pest or weed control at 62.5 g/ha ([4]; 62.5 g ai/ha, 100=total damage to plant, 0=no damage to plant, read-out: plant damage rating, Morningglory, Ivy-leaved): 0%
- pest or weed control at 250 g/ha ([4]; 250 g ai/ha, read-out: Morningglory, Ivy-leaved damage rating (100=total damage to plant; 0=no damage to plant)): 0%
- pest or weed control at 15.625 g/ha ([5]; 15.625 g ai/ha, read-out: Pigweed, Redroot damage rating (100=total damage to plant; 0=no damage to plant)): 0%
- pest or weed control at 62.5 g/ha ([5]; 62.5 g ai/ha, 100=total damage to plant, 0=no damage to plant, read-out: plant damage rating, Pigweed, Redroot): 0%
- pest or weed control at 250 g/ha ([5]; 250 g ai/ha, read-out: Pigweed, Redroot damage rating (100=total damage to plant; 0=no damage to plant)): 0%
- pest or weed control at 15.625 g/ha ([6]; 15.625 g ai/ha, read-out: Velvetleaf damage rating (100=total damage to plant; 0=no damage to plant)): 0%
- pest or weed control at 62.5 g/ha ([6]; 62.5 g ai/ha, 100=total damage to plant, 0=no damage to plant, read-out: plant damage rating, Velvetleaf): 0%
- pest or weed control at 250 g/ha ([6]; 250 g ai/ha, read-out: Velvetleaf damage rating (100=total damage to plant; 0=no damage to plant)): 50%
- pest or weed control at 15.625 g/ha ([7]; 15.625 g ai/ha, evaluated after 13 days (100=total damage to plant; 0=no damage to plant), read-out: Barnyardgrass damage rating): 0%
- pest or weed control at 62.5 g/ha ([7]; 62.5 g ai/ha, evaluated after 13 days, read-out: Barnyardgrass damage rating (100=total damage to plant; 0=no damage to plant)): 10%
- pest or weed control at 250 g/ha ([7]; 250 g ai/ha, evaluated after 13 days, read-out: damage to plant, Barnyardgrass (100=total damage to plant; 0=no damage to plant)): 20%
- plant injury at 15.625 g/ha (corn (Zea mays) [8]; 15.625 g ai/ha, evaluated after 13 days (100=total damage to plant; 0=no damage to plant), read-out: Corn damage rating): 10%
- plant injury at 62.5 g/ha (corn (Zea mays) [8]; 62.5 g ai/ha, evaluated after 13 days, read-out: Corn damage rating (100=total damage to plant; 0=no damage to plant)): 0%
- plant injury at 250 g/ha (corn (Zea mays) [8]; 250 g ai/ha, evaluated after 13 days, read-out: damage to plant, Corn (100=total damage to plant; 0=no damage to plant)): 10%
- pest or weed control at 15.625 g/ha ([9]; 15.625 g ai/ha, evaluated after 13 days (100=total damage to plant; 0=no damage to plant), read-out: Foxtail, Giant damage rating): 0%
- pest or weed control at 62.5 g/ha ([9]; 62.5 g ai/ha, evaluated after 13 days, read-out: Foxtail, Giant damage rating (100=total damage to plant; 0=no damage to plant)): 30%
- pest or weed control at 250 g/ha ([9]; 250 g ai/ha, evaluated after 13 days, read-out: damage to plant, Foxtail, Giant (100=total damage to plant; 0=no damage to plant)): 40%
- pest or weed control at 15.625 g/ha ([10]; 15.625 g ai/ha, evaluated after 13 days (100=total damage to plant; 0=no damage to plant), read-out: Morningglory, Ivy-leaved damage rating): 0%
- pest or weed control at 62.5 g/ha ([10]; 62.5 g ai/ha, evaluated after 13 days, read-out: Morningglory, Ivy-leaved damage rating (100=total damage to plant; 0=no damage to plant)): 10%
- pest or weed control at 250 g/ha ([10]; 250 g ai/ha, evaluated after 13 days, read-out: damage to plant, Morningglory, Ivy-leaved (100=total damage to plant; 0=no damage to plant)): 20%
- pest or weed control at 15.625 g/ha ([11]; 15.625 g ai/ha, evaluated after 13 days (100=total damage to plant; 0=no damage to plant), read-out: Pigweed, Redroot damage rating): 0%
- pest or weed control at 62.5 g/ha ([11]; 62.5 g ai/ha, evaluated after 13 days, read-out: Pigweed, Redroot damage rating (100=total damage to plant; 0=no damage to plant)): 0%
- pest or weed control at 250 g/ha ([11]; 250 g ai/ha, evaluated after 13 days, read-out: damage to plant, Pigweed, Redroot (100=total damage to plant; 0=no damage to plant)): 80%
- pest or weed control at 15.625 g/ha ([12]; 15.625 g ai/ha, evaluated after 13 days (100=total damage to plant; 0=no damage to plant), read-out: Velvetleaf damage rating): 0%
- pest or weed control at 62.5 g/ha ([12]; 62.5 g ai/ha, evaluated after 13 days, read-out: Velvetleaf damage rating (100=total damage to plant; 0=no damage to plant)): 0%
- pest or weed control at 250 g/ha ([12]; 250 g ai/ha, evaluated after 13 days, read-out: damage to plant, Velvetleaf (100=total damage to plant; 0=no damage to plant)): 30%
